7 molecules from article PMC11901381 (Future Medicinal Chemistry, 2025) can be followed below.

Data set [1] concerns T. brucei rhodesiense strain IL1501. The experiment in a line: Antitrypanosomal assay. It counts as cell-based, Trypanosoma brucei rhodesiense. As to conditions: IC50 of MDBK/IC50 of trypanosome.
Data set [2] relates to L. major strain NIH S promastigotes. Put plainly: Antipromastigote resazurin assay. Format: cell-based, Leishmania major. The settings on record: for AG (activity gain): IC50 (1)/IC50 (compd.), L. major promastigotes; for SI4: SI4 = IC50 Vero/IC50 promastigote, L. major; for IC50: Leishmania major, read-out: Antipromastigote activity IC50. In general terms: Resazurin is reduced to fluorescent resorufin, in cell work by metabolically active cells.

In data set [3] the test system is L. major strain NIH S intramacrophage amastigotes. The experiment in a line: Intramacrophage antileishmanial resazurin assay. It counts as cell-based, Leishmania major. The settings on record: L. major; for SI5: SI5 = IC50 Vero/static IC50 amastigote; for SI6: SI6 = IC50 Vero/cidal IC50 amastigote; for SpI3: SpI3 = IC50 promastigote/static IC50 amastigote; for SpI4: SpI4 = IC50 promastigote/cidal IC50 amastigote.

Data set [4] is described as follows: Animal cytotoxicity, CCK-8 assay. The settings on record: bovine, MDBK (Madin-Darby bovine kidney) cells. It counts as cell-based, bovine.
Data set [5] can be described thus: General. Format: cell-based. As to conditions: African green monkey, Vero cells (monkey kidney epithelial cells).
Data set [6] is described as follows: Host cell toxicity, resazurin assay. Format: cell-based. As to conditions: human.
Data set [7] deals with Trypanosoma spp. The experiment in a line: Antitrypanosomal assay, several species. It counts as cell-based. The settings on record: read-out: IC50 against several Trypanosoma spp.
The test system of data set [8] is T. brucei gambiense strain IL1922. The experiment in a line: Antitrypanosomal assay. It counts as cell-based, Trypanosoma brucei gambiense. As to conditions: IC50 of MDBK/IC50 of trypanosome.
Data set [9] has as its system T. brucei brucei strain GUTat3.1. The experiment in a line: Antitrypanosomal assay. Format: cell-based, Trypanosoma brucei brucei. As to conditions: for SI Tbb GuTat3.1: IC50 of MDBK/IC50 of trypanosome; for IC50: read-out: Antitrypomastigote activity IC50 ± SD Tbb GuTat3.1.
In data set [10] the test system is L. donovani strain 9515 promastigotes. Put plainly: Antipromastigote resazurin assay. Format: cell-based, Leishmania donovani. The settings on record: for AG (activity gain): IC50 (1)/IC50 (compd.), L. donovani promastigotes; for SI1: SI1 = IC50 Vero/IC50 promastigote, L. donovani; for IC50: Leishmania donovani, read-out: Antipromastigote activity IC50.
Data set [11] relates to T. equiperdum strain IVM-t1. Put plainly: Antitrypanosomal assay. It counts as cell-based, Trypanosoma equiperdum. As to conditions: for SI Teq IVM-t1: IC50 of MDBK/IC50 of trypanosome.
Data set [12] is described as follows: Solubility observed during sample preparation and screening. It counts as physicochemical.
Data set [13] has as its system T. congolense strain IL3000. The experiment in a line: Antitrypanosomal assay. It counts as cell-based, Trypanosoma congolense. The settings on record: IC50 of MDBK/IC50 of trypanosome.
The test system of data set [14] is L. donovani strain 9515 intramacrophage amastigotes. Put plainly: Intramacrophage antileishmanial resazurin assay. Format: cell-based, Leishmania donovani. The settings on record: L. donovani.
The subject of data set [15] is MDBK cells. The experiment in a line: Animal cytotoxicity, CCK-8 assay. It counts as cell-based, bovine. As to conditions: read-out: Cytotoxicity IC50 ± SD MDBK; MDBK cells; three biological replicates. A general note: Formazan colour is commonly taken as a measure of viable cells.

Like-named read-outs stand apart in the source and are kept apart here.

The IC50 is the point on the concentration scale where inhibition reaches its midpoint. On to `O=Cc1cn(Cc2ccc(F)cc2)c2ccc([N+](=O)[O-])cc12` [2e, 1-(4-Fluorobenzyl)-5-nitro-1 H-indole-3-carbaldehyde], for which the “SI Tbr IL1501” value in data set [1] was found to be 4. Moreover, the “AG (activity gain)” value in data set [2] and in data set [10] was 0.5 each time. This molecule showed an SI4 in data set [2] of 1. This molecule gave an SI5 in data set [3] of 8. Further, the SI6 in data set [3] is on record as 8. Also, the SpI3 in [3] is 7. For the same molecule, the SpI4 in [3] is given as 8. Moreover, the IC50 in [4] was greater than 335 µM; in [5], greater than 100 µM; in data set [6] it was greater than 100 µM; in data set [7], 20 to 40 µM; in data set [9] (Trypanosoma brucei) it was 15 ± 8.48 µM. In [8], the “SI Tbg IL1922” value is reported as 15. For the same molecule, in data set [9], the “SI Tbb GuTat3.1” value turned out to be 22. The molecule also came in with an SI1 in [10] of 1.

As for `O=C1NC(=S)S/C1=C\c1c[nH]c2ccc([N+](=O)[O-])cc12` [3a, (Z)-5-[(5-Nitro-1 H-indol-3-yl)methylene]-2-thioxothiazolidin-4-one], the “SI Tbr IL1501” value in [1] came to 0. Further, the IC50 in data set [2] was greater than 100 µM; in data set [4], 31.6 ± 1.67 µM; in [5] it was 15.2 ± 0.32 µM; in [6] it was greater than 100 µM; in data set [9] (Trypanosoma brucei) it was 33.7 ± 5.01 µM; in data set [10], greater than 100 µM. For the same molecule, in data set [11], the “SI Teq IVM-t1” value was 1. In addition, the SI5 in data set [3] was found to be 25. In addition, the SI6 in data set [3] was 27. Besides, the SpI3 in data set [3] is on record as 166. The molecule also had a SpI4 in data set [3] of 175. Further, in [8], the “SI Tbg IL1922” value was 1. Also, the “SI Tbb GuTat3.1” value in [9] is 1. Further, the “Solubility in aqueous screening medium” value in data set [12] is reported as “poor solubility”. In [13], the “SI Tc IL3000” value was determined as 1.

For `C#CCn1cc(/C=C2\SC(=S)NC2=O)c2cc([N+](=O)[O-])ccc21` [3b, (Z)-5-{[5-Nitro-1-(prop-2-yn-1-yl)-1 H-indol-3-yl]methylene}-2-thioxothiazolidin-4-one], the “SI Tbr IL1501” value in data set [1] worked out at 4. The “AG (activity gain)” value in [2] was 0.9; in data set [10], 0.7. The half-maximal inhibitory concentration (IC50) in [2] is 56.8 ± 5.57 µM; in data set [4], greater than 312 µM; in data set [5], 13.5 ± 0.8 µM; in [7], 20 to 40 µM; in data set [9] (Trypanosoma brucei), greater than 78 µM; in data set [10], 68.7 ± 6.55 µM. This molecule also gave an SI4 in data set [2] of 0.2. In addition, the “Solubility in aqueous screening medium” value in data set [12] is “poor solubility”. Also, the SI1 in data set [10] was 0.2.

On to `O=C1NC(=S)S/C1=C\c1cn(Cc2ccccc2)c2ccc([N+](=O)[O-])cc12` [3c, (Z)-5-[(1-Benzyl-5-nitro-1 H-indol-3-yl)methylene]-2-thioxothiazolidin-4-one], for which the IC50 in [2] is greater than 100 µM; in [4], 99.13 ± 0.96 µM; in data set [5], 18.8 ± 3.22 µM; in data set [6] it was greater than 100 µM; in [9] (Trypanosoma brucei), greater than 73 µM; in data set [10], greater than 100 µM. The SI2 in data set [14] (SI2 = IC50 Vero/static IC50 amastigote) is 6. The molecule also showed an SI3 in data set [14] (SI3 = IC50 Vero/cidal IC50 amastigote) of 6. In addition, the SpI1 in data set [14] (SpI1 = IC50 promastigote/static IC50 amastigote) is 34. In data set [14] (SpI2 = IC50 promastigote/cidal IC50 amastigote), this molecule displayed a SpI2 of 33. In data set [3], the SI5 amounted to 35. The molecule also gave an SI6 in data set [3] of 37. The molecule further returned a SpI3 in data set [3] of 189. In data set [3], this molecule showed a SpI4 of 196. For the same molecule, the “SI Tc IL3000” value in data set [13] is listed as 5.

Turning to `O=C1NC(=S)S/C1=C\c1cn(Cc2ccc(F)cc2)c2ccc([N+](=O)[O-])cc12` [3e, (Z)-5-{[1-(4-Fluorobenzyl)-5-nitro-1H -indol-3-yl]methylene}-2-thioxothiazolidin-4-one], the IC50 in data set [2] is greater than 100 µM; in [4], 17 ± 2.65 µM; in data set [5], 17.4 ± 1.33 µM; in data set [9] (Trypanosoma brucei), greater than 63 µM; in [10], greater than 100 µM. Further, the “Solubility in 100% DMSO” value in [12] (100% dimethyl sulfoxide used for sample preparation) is given as “poor solubility”. In addition, in data set [13], the “SI Tc IL3000” value was 7.

Consider `O=C1CSC(=S)N1/N=C/c1cn(Cc2ccc(F)cc2)c2ccc([N+](=O)[O-])cc12` [4e, (E)-3-({[1-(4-Fluorobenzyl)-5-nitro-1 H-indol-3-yl]methylene}amino)-2-thioxothiazolidin-4-one], for which, in data set [1], the “SI Tbr IL1501” value was found to be 0. In addition, the IC50 in [2] was greater than 100 µM; in [4], 22.4 ± 5.37 µM; in data set [5], greater than 100 µM; in [9] (Trypanosoma brucei), 55.3 ± 4.84 µM; in data set [10] it was greater than 100 µM. Also, the “SI Tbg IL1922” value in data set [8] worked out at 0. Further, the “SI Tbb GuTat3.1” value in data set [9] stood at 0. In data set [12], the “Solubility in aqueous screening medium” value is “poor solubility”.

`CC(=O)NCC(=O)O.CC(=O)NCC(=O)O.N=C(N)c1ccc(N=NNc2ccc(C(=N)N)cc2)cc1` [Diminazine aceturate, diminazene aceturate, reference compound]: the “SI Tbr IL1501” value in data set [1] was 9091. The “SI Teq IVM-t1” value in data set [11] is recorded as 16340. Moreover, the half-maximal inhibitory concentration (IC50) in [11] (read-out: Antitrypomastigote activity IC50 ± SD Teq IVM-t1, three biological replicates) is 0.022 ± 0.002 µM; in data set [15], greater than 355 µM; in data set [9] (three biological replicates) it was 0.068 µM. Further, the “SI Tbg IL1922” value in data set [8] worked out at 33333. For the same molecule, the “SI Tbb GuTat3.1” value in [9] was found to be 5263. For the same molecule, the “SI Tc IL3000” value in [13] is 4000.
